We go through one compound from patent US10052340B2 (XIAMEN UNIVERSITY, priority 2012, dated 2018).

Holding throughout (assay type): cell-based
Assay [1] addresses T1, FXR L287T (Homo sapiens, UniProt Q96RI1, L301T).
T1 construct: the expression plasmid expressing full-length FXR (wt) or with mutations at the corresponding sites; expressed in transfected cells; host or cells: COS-7
T1 sequence (Q96RI1 1-472 isoform Q96RI1-2 L287T): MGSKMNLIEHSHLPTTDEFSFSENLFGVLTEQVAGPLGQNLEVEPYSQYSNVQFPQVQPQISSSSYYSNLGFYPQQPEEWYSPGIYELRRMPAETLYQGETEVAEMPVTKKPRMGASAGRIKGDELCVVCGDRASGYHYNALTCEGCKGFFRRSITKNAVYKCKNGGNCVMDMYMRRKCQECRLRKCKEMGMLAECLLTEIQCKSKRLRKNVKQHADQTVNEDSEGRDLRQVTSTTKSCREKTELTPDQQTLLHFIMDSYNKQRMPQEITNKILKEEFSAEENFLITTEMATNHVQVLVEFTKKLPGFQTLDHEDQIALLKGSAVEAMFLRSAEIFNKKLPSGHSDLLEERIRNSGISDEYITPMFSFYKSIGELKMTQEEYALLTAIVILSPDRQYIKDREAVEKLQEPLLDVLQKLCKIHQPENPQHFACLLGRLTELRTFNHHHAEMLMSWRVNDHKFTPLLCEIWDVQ
In words: Reporter gene analysis with FXR point mutant L287T in COS-7 cells. The note with it: COS-7, EcRE reporter, vs wild-type FXR, FIG. 5. On the procedure:
(§1) (2) The expression vector of FXR with point mutations at key binding sites is obtained. Quick-Change site-directed mutagenesis kit (Stratagene) is used for mutation, and the mutation reaction system is as follows: wild-type plasmid pCMX-FXR (50 ng) of 0.5 μl, mutation primer (100 μM) of 0.2 μl, pfu DNA polymerase (Invitrogen) (2 U) of 1 μl, 10 mM dNTPs of 1 μl, 10× PCR buffer of 5 μl, and ddH2O of 43 μl. PCR procedures are performed as follows: 94° C. for 2 min; 94° C. for 30 s, 55° C. for 1 min, 72° C. for 7 min, 15 cycles. 20 μl PCR product is digested with Dpn I […], followed by taking and transforming 2 μl digestion product into E. coli Trans 109 competent cells, ice bath for 30 min, and heat shock at 42° C. for 30 s. 250 μl of LB liquid medium without antibiotics is added, and preshaken at 225 rpm at 37° C. for 40 min, followed by taking 150 μl of products, spreading same on LB solid medium plates with ampicillin at 100 μg/ml and culturing them at 37° C. overnight. On the next day, the single colony is picked out and placed in 2 ml LB liquid medium containing ampicillin at 100 μg/ml, and cultured at 37° C. overnight. Plasmid extraction is performed on the shaken bacterial solution using Qiagen MiniPrep Plasmid Minipreparation Kit. The plasmid is identified by sequencing.

Assay [2] relates to FXR knockout mouse liver cells. Kind of assay: LPS induced inflammatory gene expression in FXR knockout mouse liver cells. An excerpt: Ivermectin and LPS are used to treat wild-type and FXR knockout mouse liver cells.
The target in assay [3] is T2, FXR H447F (Homo sapiens, UniProt Q96RI1, H461F).
T2 construct: the expression plasmid expressing full-length FXR (wt) or with mutations at the corresponding sites; expressed in transfected cells; host or cells: COS-7
T2 sequence (Q96RI1 1-472 isoform Q96RI1-2 H447F): T1 sequence (Q96RI1 1-472 isoform Q96RI1-2 L287T) with T287L, H447F
In words: Reporter gene analysis with FXR point mutant H447F in COS-7 cells. The following applies: COS-7, EcRE reporter, vs wild-type FXR, FIG. 5. On the procedure: as §1

Each structure is given as a SMILES string. Residue numbers refer to the chain shown, from its start.

Consider `CC[C@H](C)[C@H]1O[C@]2(CC[C@@H]1C)C[C@@H]1C[C@@H](C/C=C(\C)C(O[C@H]3C[C@H](OC)C(O[C@H]4C[C@H](OC)[C@@H](O)[C@H](C)O4)[C@H](C)O3)[C@@H](C)/C=C/C=C3\CO[C@@H]4[C@H](O)C(C)=CC(C(=O)O1)[C@]34O)O2` (stereo partly drawn) [ivermectin], for which the “transcriptional activity of FXR mutant L287T” value in assay [1] is given as “significantly increasing”. For the same compound, the “expression of inflammatory factors induced by LPS” value in assay [2] was “no clear change”. Besides, the “transcriptional activity of FXR mutant H447F” value in assay [3] is “significantly increasing”.
